Here are results for 15 compounds from patent publication US5126356A, “Piperidine compounds” (Adir et Compagnie, priority 1989, dated 1992).

Where a name gives a salt, the structure may show the parent alone.

Test [1] deals with human LDL's. Description: Oxidative modification of human LDL's by copper sulphate (MDA production). The test is classed as biochemical. Conditions: for IC50: read-out: IC50 (reduction of MDA production by 50%), Cu2+ (copper sulphate 5×10^-6 M), 24 hours. The method, then: Human LDL's are incubated for 24 hours in the presence of copper sulphate (5×10^-6 M) and in the absence or in the presence of the test compounds (10^-7 M to 10^-4 M).
After incubation, the peroxidation of the LDL's is evaluated by agar gel electrophoresis and by the formation of one of the products of lipid peroxidation: malondialdehyde (MDA) (Parthasarathy S., Young S. G., Witztum J. L., Pittman R. C. and Steinberg D.; J. Clin. Invest. 77, 641-644, 1986).

Test [2] relates to cardiac cells. Description: Oxidative necrosis of cardiac cells induced by hypoxanthine/xanthine oxidase (α-HBDH release). The test is classed as cell-based, rat. The note with it: for activity at 10 µM / activity at 1 µM / activity at 0.1 µM / inhibition at 1 µM: Rattus norvegicus, Cardiomyocyte, 4 h; for activity at 10 µM / activity at 1 µM / activity at 0.1 µM / necrosis index: XO + HX, control XO + HX = 100, mean ±SD; for activity at 10 µM / activity at 1 µM / activity at 0.1 µM: read-out: necrosis index; for inhibition at 1 µM: from 10^-6 M, read-out: reduction of oxidative necrosis of the cardiomyocytes; for necrosis index: 240 min. The method, then:
Cardiac cells of newly born rats are used between the 5th and 7th day following culturing. Oxidative necrosis is induced by the enzymatic production system of hypoxanthine free radicals (HX, 1 mM) and xanthine oxidase (XO, 10 mU/ml). The necrosis is evaluated 4 hours after the addition of XO/HX by measuring by spectrophotometry the cytosolic α-hydroxybutyrate dehydrogenase (α-HBDH) activity released into the supernatant liquor. Two reference molecules (Probucol, vitamin E) and two molecules representative of the present invention (corresponding to Examples 13 and 19) were tested. The cells are treated with the molecules 16 hours and 1 hour before the start of the experiment after renewal of the medium. At the start of the experiment, the treatment is repeated one last time.
The necrosis index 100 corresponds to the release of 46.7±5.3% of the cytosolic content of α-HBDH into the supernatant liquor in 4 hours.
The results are expressed as the mean ±SD (2<n≤4, 3 to 4 repetitions per experiment).

For test [3], the target named is type L calcium channels. Description: Binding: displacement of [3H] D888 at the Ca2+ channel. The note with it: read-out: K0.5 (50% of specifically fixed radioactivity displaced). (In a radioligand displacement assay an active substance lowers the binding of a labelled ligand.)
Test [4] addresses T1, type L Ca^2+ channel (Rattus norvegicus, UniProt P22002).
T1 construct: cell lines from the aorta of newly born rats; host or cells: A7 r5
Description: Inhibition of 45Ca2+ influx through the Ca2+ channel in A7 r5 cells. The format is cell-based. Conditions: 45Ca2+ influx, A7 r5 cells; read-out: K0.5 (50% of 45Ca2+ influx inhibited).

Test [5] deals with T2, type L calcium channels (Oryctolagus cuniculus, UniProt P07293).
T2 construct: microsomal fractions enriched with type L calcium channels; from tissue; host or cells: microsomal fractions
T2 sequence (P07293 whole entry): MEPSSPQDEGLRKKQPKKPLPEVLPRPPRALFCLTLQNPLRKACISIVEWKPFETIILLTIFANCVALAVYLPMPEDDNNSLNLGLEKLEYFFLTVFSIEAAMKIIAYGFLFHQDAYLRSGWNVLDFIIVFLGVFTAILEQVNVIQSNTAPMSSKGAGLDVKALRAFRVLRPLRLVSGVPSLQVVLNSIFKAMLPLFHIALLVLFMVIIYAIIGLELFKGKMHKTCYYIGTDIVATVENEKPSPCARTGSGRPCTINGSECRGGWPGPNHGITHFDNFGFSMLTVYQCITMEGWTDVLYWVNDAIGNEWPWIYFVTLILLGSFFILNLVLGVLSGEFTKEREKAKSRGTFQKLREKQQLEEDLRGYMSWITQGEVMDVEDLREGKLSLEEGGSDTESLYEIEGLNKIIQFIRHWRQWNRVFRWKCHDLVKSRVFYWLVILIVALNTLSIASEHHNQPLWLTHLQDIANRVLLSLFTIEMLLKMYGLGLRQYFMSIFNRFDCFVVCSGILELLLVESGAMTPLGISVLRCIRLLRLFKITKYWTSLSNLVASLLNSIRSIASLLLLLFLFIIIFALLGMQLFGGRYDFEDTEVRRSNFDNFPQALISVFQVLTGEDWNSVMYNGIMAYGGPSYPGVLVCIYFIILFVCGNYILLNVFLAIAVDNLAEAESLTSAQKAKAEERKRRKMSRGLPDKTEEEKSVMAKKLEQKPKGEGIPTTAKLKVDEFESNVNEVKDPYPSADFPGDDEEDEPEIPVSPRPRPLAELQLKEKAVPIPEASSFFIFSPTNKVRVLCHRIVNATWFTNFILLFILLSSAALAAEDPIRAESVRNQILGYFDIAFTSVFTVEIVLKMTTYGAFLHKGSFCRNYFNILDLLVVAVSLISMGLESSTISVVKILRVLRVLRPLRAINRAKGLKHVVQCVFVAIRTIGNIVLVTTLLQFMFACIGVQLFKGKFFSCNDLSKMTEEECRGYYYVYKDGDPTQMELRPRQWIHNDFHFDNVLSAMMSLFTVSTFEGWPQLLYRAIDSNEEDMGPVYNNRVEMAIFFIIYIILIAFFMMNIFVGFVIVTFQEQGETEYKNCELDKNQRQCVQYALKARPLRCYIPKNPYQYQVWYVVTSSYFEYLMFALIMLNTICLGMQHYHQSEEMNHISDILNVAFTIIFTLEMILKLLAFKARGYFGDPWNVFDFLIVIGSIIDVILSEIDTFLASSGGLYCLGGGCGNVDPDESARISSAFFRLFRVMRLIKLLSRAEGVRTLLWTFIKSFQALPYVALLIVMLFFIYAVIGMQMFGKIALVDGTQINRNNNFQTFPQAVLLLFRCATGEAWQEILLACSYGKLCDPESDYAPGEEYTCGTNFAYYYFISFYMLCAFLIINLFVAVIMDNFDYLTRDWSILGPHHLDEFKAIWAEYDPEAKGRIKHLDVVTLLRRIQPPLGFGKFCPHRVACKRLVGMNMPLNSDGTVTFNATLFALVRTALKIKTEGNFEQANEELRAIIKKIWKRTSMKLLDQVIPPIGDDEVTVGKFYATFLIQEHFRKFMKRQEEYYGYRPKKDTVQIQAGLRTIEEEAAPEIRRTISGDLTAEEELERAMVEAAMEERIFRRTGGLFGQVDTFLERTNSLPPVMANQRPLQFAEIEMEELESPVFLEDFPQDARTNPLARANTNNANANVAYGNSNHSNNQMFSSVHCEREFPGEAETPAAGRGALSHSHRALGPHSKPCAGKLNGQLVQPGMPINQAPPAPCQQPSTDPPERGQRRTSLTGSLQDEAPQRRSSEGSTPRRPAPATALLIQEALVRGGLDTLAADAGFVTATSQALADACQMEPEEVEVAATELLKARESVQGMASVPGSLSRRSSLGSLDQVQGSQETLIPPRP
T2 sequence (P13806 27-960 partner limits assumed): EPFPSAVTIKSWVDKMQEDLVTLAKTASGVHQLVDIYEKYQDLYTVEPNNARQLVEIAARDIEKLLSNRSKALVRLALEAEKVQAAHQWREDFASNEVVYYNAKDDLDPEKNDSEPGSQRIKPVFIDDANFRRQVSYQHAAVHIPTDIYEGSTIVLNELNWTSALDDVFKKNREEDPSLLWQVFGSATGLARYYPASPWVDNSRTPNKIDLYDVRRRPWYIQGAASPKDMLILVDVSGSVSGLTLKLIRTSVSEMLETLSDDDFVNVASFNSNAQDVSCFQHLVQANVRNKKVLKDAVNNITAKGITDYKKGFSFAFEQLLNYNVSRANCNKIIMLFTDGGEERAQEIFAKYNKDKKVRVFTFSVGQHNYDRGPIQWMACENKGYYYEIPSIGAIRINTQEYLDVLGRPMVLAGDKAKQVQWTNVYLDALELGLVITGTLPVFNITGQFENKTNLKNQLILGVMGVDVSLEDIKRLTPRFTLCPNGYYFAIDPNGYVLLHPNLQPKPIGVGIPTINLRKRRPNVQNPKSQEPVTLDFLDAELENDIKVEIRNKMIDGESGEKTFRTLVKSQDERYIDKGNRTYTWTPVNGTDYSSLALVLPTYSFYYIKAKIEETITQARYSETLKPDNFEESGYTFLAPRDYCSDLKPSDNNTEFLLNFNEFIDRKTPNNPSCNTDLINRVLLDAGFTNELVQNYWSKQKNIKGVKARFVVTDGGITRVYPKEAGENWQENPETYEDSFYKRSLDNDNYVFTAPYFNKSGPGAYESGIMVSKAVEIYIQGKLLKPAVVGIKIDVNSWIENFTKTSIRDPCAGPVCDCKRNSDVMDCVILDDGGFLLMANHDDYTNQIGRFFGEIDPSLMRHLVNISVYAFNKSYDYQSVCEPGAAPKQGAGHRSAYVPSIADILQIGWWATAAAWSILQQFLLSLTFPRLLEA
T2 sequence (P13806 961-1106 partner limits assumed): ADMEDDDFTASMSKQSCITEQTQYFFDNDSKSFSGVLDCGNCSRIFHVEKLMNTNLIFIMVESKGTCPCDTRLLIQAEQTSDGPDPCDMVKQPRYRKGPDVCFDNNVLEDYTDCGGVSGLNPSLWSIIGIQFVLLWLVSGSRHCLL
T2 sequence (P19517 whole entry partner): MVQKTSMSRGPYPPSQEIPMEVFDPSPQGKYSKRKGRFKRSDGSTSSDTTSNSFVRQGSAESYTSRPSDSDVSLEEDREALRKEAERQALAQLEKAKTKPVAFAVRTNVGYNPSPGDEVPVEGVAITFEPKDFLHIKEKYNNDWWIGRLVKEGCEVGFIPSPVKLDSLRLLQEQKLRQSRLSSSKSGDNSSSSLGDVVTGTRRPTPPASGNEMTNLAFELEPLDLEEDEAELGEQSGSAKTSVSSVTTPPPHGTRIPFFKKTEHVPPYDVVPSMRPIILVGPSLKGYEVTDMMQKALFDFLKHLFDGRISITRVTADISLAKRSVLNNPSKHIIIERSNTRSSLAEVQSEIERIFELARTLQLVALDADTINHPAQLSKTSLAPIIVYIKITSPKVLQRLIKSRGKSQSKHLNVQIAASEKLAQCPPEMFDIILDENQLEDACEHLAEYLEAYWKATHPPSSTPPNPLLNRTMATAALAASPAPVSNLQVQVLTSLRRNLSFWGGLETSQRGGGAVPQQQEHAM
T2 sequence (P19518 whole entry partner): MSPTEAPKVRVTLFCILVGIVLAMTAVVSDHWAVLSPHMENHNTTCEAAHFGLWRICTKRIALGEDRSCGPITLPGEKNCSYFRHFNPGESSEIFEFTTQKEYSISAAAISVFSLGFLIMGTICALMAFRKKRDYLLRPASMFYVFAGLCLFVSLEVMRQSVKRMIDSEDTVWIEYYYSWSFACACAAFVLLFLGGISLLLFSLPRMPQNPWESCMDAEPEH
Put plainly: Binding: displacement of [3H] PN 200-110 at the Ca2+ channel.

Test [6] has as its target Beta adrenergic β. Description: Binding to neurotransmitter receptors: beta adrenergic ([3H] DHA). Conditions: read-out: K0.5.
Test [7] concerns cardiac cells. Description: Protection of cardiac cells from necrosis induced by intracellular acidosis (αHBDH release). The format is cell-based, rat. Conditions: Rattus norvegicus, Cardiomyocyte. The method, then: a) Cardiac cells: the cardiac cells are prepared from the hearts of newly born (3 days) Wistar rats in accordance with the technique of RENAUD JF., MEAUX JP., ROMEY G., SCHMID A., LAZDUNSKI M., Activation of the voltage-dependent Ca^2+ channels in rat heart cells by dihydropyridine derivative--Biochem. Biophys. Res. Commun., 125, 405-412 (1984).
The cardiomyocytes are isolated from the ventricles by enzymatic dissociation and cultured at 185,000 cells/cm^2. The cells are kept at 37° C. under an air/CO2 atmosphere (95 V/5 V) saturated with water. The cardiomyocytes are used between the 3rd and 8th day following culturing.
Intracellular acidosis is induced in accordance with the conditions published by RENAUD JF., Internal pH Na^+ and Ca^2+ regulation by trimetazidine during cardiac cell acidosis. Cardiovasc. Drugs and Ther., 1, 667-686 (1988) in the presence or absence of the products to be tested. Cellular necrosis is evaluated by measuring by spectrophotometry using the Boerhinger 124800 kit the kinetics of the release of a cytosolic enzyme α-hydroxybutyrate dehydrogenase (αHBDH) into the extracellular medium.
The signal measured corresponds to the amplitude of the necrosis induced by the acidosis. The values are the means ±SD. The number of experiments is indicated in parentheses.

Test [8] deals with Alpha adrenergic α2. Put plainly: Binding to neurotransmitter receptors: alpha2 adrenergic ([3H] Rauwolscine). The note with it: α2, [3H] Rauwolscine; read-out: K0.5.
Setting [9] is: read-out: amplitude of the necrosis induced by the acidosis.

Regarding `COc1ccc(CSC2CCN(Cc3cc(C(C)(C)C)c(O)c(C(C)(C)C)c3)CC2)c(OC)c1OC` [Example 13, 4-(2,3,4-trimethoxybenzylthio)-1-(3,5-di-tert.-butyl-4-hydroxybenzyl)piperidine], the IC50 in test [1] turned out to be 3 µM. In test [2], the “protection of cardiac cells with respect to oxidative necrosis (in words)” value was “markedly superior to the anti-oxidant reference products” and the inhibition at 1 µM was ≥ 50%. Further, the activity at 10 µM in test [2] (10^-5 M) turned out to be 16.1 ± 5.6%. In test [2] (10^-6 M), the activity at 1 µM was 52.4 ± 18.2%. In addition, in test [2] (10^-7 M), the activity at 0.1 µM came to 75.7 ± 19.7%.
Consider `COc1cccc(CCN(C)CCCC(C#N)(c2ccc(OC)c(OC)c2)C(C)C)c1` (centres unmarked) [Example D888, reference compound], for which the IC50 came out at 0.0025 µM in test [3] and 0.023 µM in test [4].
Take `COc1ccc(CSC2CCN(CCCSc3cc(C(C)(C)C)c(O)c(C(C)(C)C)c3)CC2)c(OC)c1OC` [Example 18, 4-(2,3,4-trimethoxybenzylthio)-1-[3-(3,5-di-tert.butyl-4-hydroxyphenylthio)propyl]piperidine]: the IC50 in test [1] stood at 2 µM.
With `COc1ccc(CN2CCNCC2)c(OC)c1OC` [Trimetazidine, 2 HCl, trimetazidine dihydrochloride, reference compound], the IC50 in test [3] is > 100 µM. Besides, the IC50 in test [5] is > 100 µM. For the same compound, in test [6], the IC50 was > 100 µM. In test [7] (setting [9]), the activity at 20 µM stood at 94.6%, the activity at 100 µM is 75.8% and the activity at 500 µM worked out at 58.3%. Also, the inhibition at 500 µM in test [7] (read-out: protection of cell population subjected to intracellular acidosis) is 42%.
Regarding `COc1ccc(CSC2CCN(CC(O)CSc3cc(C(C)(C)C)c(O)c(C(C)(C)C)c3)CC2)c(OC)c1OC` (centres unmarked) [Example 16, 4-(2,3,4-trimethoxybenzylthio)-1-[3-(3,5-di-tert.-butyl-4-hydroxyphenylthio)-2-hydroxypropyl]piperidine], the IC50 in test [1] is 3 µM.
On to `COc1ccc(CSC2CCN(CCCOc3cc(C)c(O)c(C)c3C)CC2)c(OC)c1OC` [Example 19, 4-(2,3,4-trimethoxybenzylthio)-1-[3-(2,3,5-trimethyl-4-hydroxyphenoxy)propyl]piperidine], for which, in test [1] (copper sulphate), the “protection of human LDL's with respect to oxidative modification (in words)” value is recorded as “greater ability”. Besides, the IC50 in test [1] turned out to be 0.3 µM. In test [2], the “protection of cardiac cells with respect to oxidative necrosis (in words)” value is reported as “markedly superior to the anti-oxidant reference products” and the inhibition at 1 µM was ≥ 50%. For the same compound, the activity at 10 µM in test [2] (10^-5 M) was found to be 7.9 ± 4.1%. Besides, the activity at 1 µM in test [2] (10^-6 M) worked out at 38.4 ± 13.7%. For the same compound, the activity at 0.1 µM in test [2] (10^-7 M) was determined as 86 ± 11.5%.
With `COc1ccc(CSC2CCN(CC(O)COc3cc(C(C)(C)C)c(O)c(C(C)(C)C)c3)CC2)c(OC)c1OC` (centres unmarked) [Example 17, 4-(2,3,4-trimethoxybenzylthio)-1-[3-(3,5-di-tert.-butyl-4-hydroxyphenoxy)-2-hydroxypropyl]piperidine], the IC50 in test [1] was 2 µM.
On to `COc1ccc(CSC2CCN(CCCCCSc3cc(C(C)(C)C)c(O)c(C(C)(C)C)c3)CC2)c(OC)c1OC` [Example 20, 4-(2,3,4-trimethoxybenzylthio)-1-[5-(3,5-di-tert.butyl-4-hydroxyphenylthio)pentyl]piperidine], for which the IC50 in test [1] turned out to be 1 µM.
Still for that read-out and setting: next, `COc1ccc(CSC2CCN(CCCCCOc3cc(C(C)(C)C)c(O)c(C(C)(C)C)c3)CC2)c(OC)c1OC` [Example 21, 4-(2,3,4-trimethoxybenzylthio)-1-[5-(3,5-di-tert.-butyl-4-hydroxyphenoxy)pentyl]piperidine]: 0.8 µM.
For `COC(=O)[C@@H]1[C@H]2C[C@H]3c4[nH]c5ccccc5c4CCN3C[C@@H]2CC[C@@H]1O` [Yohimbine, reference compound], in test [8], the IC50 was determined as 0.031 µM.
Regarding vitamin E [reference compound], the IC50 in test [1] was > 100 µM. Moreover, the necrosis index in test [2] (10^-5 M, 10 µM) was 54.9 ± 11.3; in test [2] (10^-6 M, 1 µM) it was 87.6 ± 5.7; in test [2] (10^-7 M, 0.1 µM) it was 97.1 ± 2.6.
Consider `COc1ccc(CSC2CCN(CCCc3cc(C(C)(C)C)c(O)c(C(C)(C)C)c3)CC2)c(OC)c1OC` [Example 15, 4-(2,3,4-trimethoxybenzylthio)-1-[3-(3,5-di-tert.-butyl-4-hydroxyphenyl)propyl]piperidine], for which the IC50 in test [1] was 3 µM.
The same measure, in the same setting: the value for `COc1ccc(CSC2CCN(CCCOc3cc(C(C)(C)C)c(O)c(C(C)(C)C)c3)CC2)c(OC)c1OC` [Example 14, 4-(2,3,4-trimethoxybenzylthio)-1-[3-(3,5-di-tert.-butyl-4-hydroxyphenoxy)propyl]piperidine] was 1 µM.
On to `C=CCc1ccccc1OCC(O)CNC(C)C` (centres unmarked) [Alprenolol], for which the IC50 in test [6] worked out at 0.0021 µM.
Consider `CC(C)(Sc1cc(C(C)(C)C)c(O)c(C(C)(C)C)c1)Sc1cc(C(C)(C)C)c(O)c(C(C)(C)C)c1` [Probucol, reference compound], for which the IC50 in test [1] is 3 µM. In addition, the activity at 10 µM in test [2] (10^-5 M) was found to be 68 ± 0.9%. Further, the activity at 1 µM in test [2] (10^-6 M) was found to be 95 ± 1.7%.
